Laboratory results as given in the supplement of paper PMC10307832.

Legend:
Assay in all cases: relative viability (nuclei count vs DMSO), 5 days (fraction); higher = more cells survive
[1] = compound: C1CNCCC1C2=CC(=NN2)C3=CC=NC=C3 + Cc1cc(Nc2cc(N3CCN(C)CC3)nc(Sc3ccc(NC(=O)C4CC4)cc3)n2)n[nH]1 [Tozasertib] (partner 0.1 µM)
Outline: (§1)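 Lung cancer cell lines were seeded in 1536-well plates and dosed by pin tool the next day, with either a single drug or a fixed anchor-drug dose combined with five library-drug doses (not always all listed) spaced in √10 steps. Five days later, one step fixed the cells and stained their nuclei (final 0.05% Triton X-100, 1% formaldehyde, 1 ug/ml Hoechst), and nuclei were counted on 4× images. Relative viability is the nuclei count in treated wells divided by the count in vehicle wells, and each value is the median of duplicate plates.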

[2] = compound: C[C@@H](N)c1ccc(C(=O)Nc2ccnc3[nH]ccc23)cc1 + Nc1nc2[nH]cc(CCc3ccc(C(=O)N[C@@H](CCC(=O)O)C(=O)O)cc3)c2c(=O)[nH]1 [Pemetrexed] (partner 0.2 µM)
Outline: as §1

Tanzisertib + Dasatinib = compound: O[C@H]1CC[C@H](Nc2ncc3nc(Nc4c(F)cc(F)cc4F)n([C@H]4CCOC4)c3n2)CC1 [Tanzisertib] + Cc1nc(Nc2ncc(C(=O)Nc3c(C)cccc3Cl)s2)cc(N2CCN(CCO)CC2)n1 [Dasatinib] (partner 0.075 µM)
Outline: as §1

[3] = compound: C[C@@H](N)c1ccc(C(=O)Nc2ccnc3[nH]ccc23)cc1 + CC(=O)Nc1cccc(-n2c(=O)n(C3CC3)c(=O)c3c(Nc4ccc(I)cc4F)n(C)c(=O)c(C)c32)c1 [Trametinib] (partner 0.02 µM)
Outline: as §1

| Cell Line | relative viability ([1]; first compound 0.08 µM) | relative viability ([1]; first compound 0.8 µM) | relative viability ([1]; first compound 2.53 µM) | relative viability ([1]; first compound 8 µM) | relative viability ([2]; first compound 0.1265 µM) | relative viability ([2]; first compound 0.4 µM) | relative viability ([2]; first compound 1.265 µM) | relative viability ([2]; first compound 4 µM) | relative viability (Tanzisertib + Dasatinib; first compound 0.08 µM) | relative viability (Tanzisertib + Dasatinib; first compound 0.253 µM) | relative viability (Tanzisertib + Dasatinib; first compound 0.8 µM) | relative viability (Tanzisertib + Dasatinib; first compound 2.53 µM) | relative viability (Tanzisertib + Dasatinib; first compound 8 µM) | relative viability ([3]; first compound 0.1265 µM) | relative viability ([3]; first compound 0.4 µM) | relative viability ([3]; first compound 1.265 µM) | relative viability ([3]; first compound 4 µM) | relative viability ([2]; first compound 0.04 µM) | relative viability ([3]; first compound 0.04 µM) |
| --- | --- | --- | --- | --- | --- | --- | --- | --- | --- | --- | --- | --- | --- | --- | --- | --- | --- | --- | --- |
| HCC-827 | 0.389 | 0.435 | 0.453 | 0.432 | 0.272 | 0.268 | 0.292 | 0.264 | 0.457 | 0.26 | 0.35 | 0.201 | 0.105 | 0.703 | 0.758 | 0.763 | 0.653 | – | – |
| HOP-62 | 0.416 | 0.407 | 0.386 | 0.383 | 0.344 | 0.252 | 0.298 | 0.288 | 0.733 | 0.654 | 0.659 | 0.644 | 0.569 | 0.356 | 0.35 | 0.377 | 0.365 | 0.286 | 0.425 |
| LC-2-ad | – | 0.445 | 0.485 | 0.467 | 0.267 | 0.248 | 0.279 | 0.259 | 0.789 | 0.642 | 0.686 | 0.684 | 0.403 | 0.911 | 0.883 | 0.926 | 0.727 | 0.263 | 0.957 |
| LCLC-97TM1 | 0.225 | 0.177 | 0.256 | 0.293 | 0.188 | 0.172 | 0.0771 | 0.21 | 0.953 | 0.878 | 0.831 | 0.786 | 0.901 | 0.193 | 0.227 | 0.259 | 0.18 | 0.207 | 0.211 |
| LCLC-103H | 0.469 | 0.534 | 0.459 | 0.443 | 0.426 | 0.493 | 0.51 | 0.407 | 0.496 | 0.466 | 0.427 | 0.402 | 0.468 | 0.618 | 0.647 | 0.616 | 0.634 | 0.417 | 0.715 |
| LK-2 | 0.157 | 0.208 | 0.182 | 0.184 | 0.264 | 0.22 | 0.282 | 0.362 | 0.281 | 0.287 | 0.318 | 0.28 | 0.207 | 0.733 | 0.694 | 0.939 | 0.933 | 0.345 | 1.03 |
| LOU-NH91 | 0.673 | 0.648 | 0.696 | 0.58 | 0.378 | 0.393 | 0.44 | 0.368 | 0.597 | 0.585 | 0.564 | 0.515 | 0.391 | 0.796 | 0.739 | 0.644 | 0.539 | 0.378 | 0.746 |
| LU99A | 0.307 | 0.267 | 0.278 | 0.304 | 0.189 | 0.191 | 0.23 | 0.188 | 0.585 | 0.629 | 0.556 | 0.557 | 0.496 | 0.586 | 0.52 | 0.477 | 0.483 | – | – |
| LXF-289 | 0.219 | 0.196 | 0.178 | 0.207 | 0.909 | 0.948 | 0.929 | 0.79 | 0.233 | 0.202 | 0.222 | 0.212 | 0.215 | 0.676 | 0.708 | 0.797 | 0.588 | 0.861 | 0.661 |
| NCI-H23 | 0.35 | 0.422 | 0.411 | 0.36 | 0.744 | 0.848 | – | 0.754 | 0.918 | 0.814 | 0.726 | 0.694 | 0.51 | 0.427 | 0.386 | – | 0.483 | 0.619 | 0.422 |
| NCI-H322M | 0.461 | 0.462 | 0.523 | 0.503 | 0.654 | 0.588 | 0.48 | 0.602 | 0.243 | 0.248 | 0.275 | 0.249 | 0.262 | 0.61 | 0.701 | 0.617 | 0.684 | 0.79 | 0.625 |
| NCI-H358 | 0.106 | 0.101 | 0.106 | 0.0938 | 0.189 | 0.18 | 0.165 | 0.16 | 0.185 | 0.159 | 0.164 | 0.151 | 0.131 | 0.133 | 0.138 | 0.121 | 0.139 | 0.183 | 0.157 |
| NCI-H441 | 0.532 | 0.613 | 0.727 | 0.73 | 0.302 | 0.257 | 0.231 | 0.223 | 0.625 | 0.499 | 0.605 | 0.479 | 0.521 | 0.61 | 0.478 | 0.38 | 0.405 | 0.245 | 0.522 |
| NCI-H460 | 0.474 | 0.381 | 0.617 | 0.449 | 0.063 | 0.0594 | 0.0603 | 0.0691 | 0.595 | 0.595 | 0.489 | 0.474 | 0.303 | 0.165 | 0.243 | 0.0564 | 0.178 | 0.0682 | 0.217 |
| NCI-H727 | 0.613 | 0.51 | 0.87 | 0.545 | – | – | – | – | 0.489 | 0.286 | 0.403 | 0.349 | 0.271 | 0.432 | 0.404 | 0.466 | 0.467 | – | 0.41 |
| NCI-H1563 | – | – | – | – | 0.915 | 0.867 | 0.413 | 0.706 | 0.435 | 0.479 | 0.451 | 0.471 | 0.436 | – | – | – | – | 0.772 | – |
| NCI-H1623 | 0.434 | 0.446 | 0.439 | 0.454 | – | – | – | – | 0.59 | 0.572 | 0.608 | 0.455 | 0.514 | – | – | – | – | – | – |
| NCI-H1648 | 0.425 | 0.475 | 0.461 | 0.508 | 0.933 | 1.03 | 1.12 | 1.28 | – | – | – | – | – | 0.581 | 0.574 | 0.266 | 0.722 | 1.12 | 0.57 |
| NCI-H1792 | – | – | – | – | 0.731 | 0.875 | 0.72 | 0.584 | 0.819 | 0.685 | 0.78 | 0.724 | 0.552 | 0.465 | 0.597 | 0.698 | 0.324 | 0.817 | 0.5 |
